Results on one compound are retold here after patent US20230110113A1, “FGFR TYROSINE KINASE INHIBITORS FOR THE TREATMENT OF HIGH-RISK NON-MUSCLE INVASIVE BLADDER CANCER” (Janssen Pharmaceutica NV, priority 2020, published 2023).

Test [1] relates to UM-UC-1 bladder cancer cell line (WT). Particulars: MTT.
Test [2] deals with EJ28 bladder cancer cell line (FGFR status unknown). Particulars: EJ28, FGFR3 status unknown.
Test [3] concerns T24 bladder cancer cell line (WT). Particulars: T24, FGFR3 WT.

Consider `COc1cc(OC)cc(N(CCNC(C)C)c2ccc3ncc(-c4cnn(C)c4)nc3c2)c1` [erdafitinib, N-(3,5-dimethoxyphenyl)-N′-(1-methylethyl)-N-[3-(1-methyl-1H-pyrazol-4-yl)quinoxalin-6-yl]ethane-1,2-diamine], for which, in test [1], the “Cell viability max effect” value was found to be 80%. The “Sensitivity of cell line to erdafitinib (in words)” value in test [2] and in test [3] was “not sensitive” throughout.
